According to patent publication US6649615B2, “Method for inhibiting fibrogenesis” (Institute National de la Sante et de la Recherche Medicale …, priority 2002, dated 2003):
Where “and” joins values, the source holds several entries; their conditions need not be identical. Identical values can stand only once. Entries after “also recorded” stand apart in the source; their conditions may differ.

Tests used:
[1] = test system: CCl4-induced hepatocyte necrosis; assay: Acute toxicity of CCl4: liver function tests and area of necrosis; conditions: for effect on the acute toxicity of CCl4 (biological tests and necrosis area): co-treatment with CCl4 vs CCl4 alone
Method: Routine liver function blood tests (bilirubin, alkaline phosphatase and transaminases) were performed on an automated analyzer.
Thus, groups of animals treated with 2 administrations of CCl4 with or without 2 injections of OHDA were sacrificed 24 hours after the second CCl4 treatment and evaluated for acute toxicity of CCl4 by serum tests and measurement of the area of necrosis on liver sections.
The percentage of necrosis area was determined on hematoxylin and eosin stained sections by image analysis.

[2] = Vital parameters and liver function tests after 2 weeks of treatment; format: in vivo, rat; conditions: for Bilirubin / ALAT / ASAT / Alkaline phosphatase / LW/BW ratio (X100) / Liver weight / Body weight: 2 weeks; for Bilirubin / ALAT / ASAT / Alkaline phosphatase: serum
Method: (§1) All experiments were carried out using accepted ethical guidelines. Male Wistar rats (Charles River, St Aubin-les-Elbeuf, France) weighing 200-250 g were used in this study. The animals had free access to food and drinking water. Fibrosis was induced by giving CCl4 (Sigma, St Quentin-Fallavier, France) mixed with olive oil (1vol: 5vol.) at 0.375 ml/kg body weight by gavage, three times a week, on Monday, Wednesday and Friday. Control animals for CCl4 received only olive oil.
(§2) Sympathetic chemical denervation was performed with OHDA (Sigma). OHDA was freshly prepared in saline containing 0.4% (w/v) ascorbic acid (Sigma). OHDA was administered intraperitoneally, twice a week on 2 consecutive days (Monday and Tuesday) at the dose of 25 mg/kg body weight. The first injection was given 4 to 6 hours before the first administration of CCl4. Control animals for OHDA received only the solvent.
(§3) Thus, 4 groups including each 6 animals could be distinguished. Group I: olive oil and saline alone; group II: olive oil and OHDA alone; group III: CCl4 with saline; group IV: CCl4 with OHDA. These animals were treated for 2 weeks. In another series of experiments, animals were similarly treated for 6 weeks. In that case, both control groups included only 3 animals.
Serum samples were also collected.

[3] = test system: CCl4-induced liver fibrosis; assay: CCl4-induced liver fibrosis in rats, fibrosis area by Picro Sirius red image analysis; format: in vivo, rat; conditions: for area of fibrosis (% of field area): control 0.63±0.06%
Method: as §1, §2, §3
Finally, other animals were treated with the specific α1-adrenergic receptor antagonist prazosin (Sigma), given in drinking water daily at a dose of 50 mg/l during 2 weeks. Group V animals received CCl4 alone, while group VI received CCl4 with prazosin. Both groups included 6 animals.
At the designated time points, the animals were sacrificed. Liver samples were taken from several lobes and either snap frozen in liquid nitrogen, cryopreserved in OCT compound (Sakura, Torrance, Calif.) and snap-frozen in liquid nitrogen-cooled isopentane, or fixed in buffered formalin.
This was done on formalin-fixed, paraffin-embedded sections stained with Picro Sirius red, using image analysis. All samples from a series of experiments were stained simultaneously. Quantitative data were obtained using a computerized image analysis system (Biocom 500, Les Ulis, France) including a personal computer (DESK PRO, Compaq, Houston, Tex.), a CCD video camera (Sony, Japan) and a Zeiss microscope (Jena, Germany). Sampling corresponded to 3 sections from 3 different lobes. The analysis was performed on an average of 50 fields per section using the ×4 objective. The whole surface of the sections was used for analysis with the exception of large centrolobular veins (diameter ≧150 μm) and large portal tracts. Fibrosis deposition was expressed as a percentage of stained areas on the total measured area.
Interassay variation was calculated in preliminary experiments and found to be 1.4%. When the percentage of reduction in areas of fibrosis consecutive to treatments was calculated, control values were first substracted.

TIMP-1 mRNA = assay: Liver TIMP-1 mRNA by Northern blot (TIMP-1/GAPDH ratio); format: in vivo, rat
Method: […] The blot was then stripped and rehybridized with a rat GAPDH (glyceraldehyde-3-phosphate dehydrogenase) probe.
[…] of total RNA extracted from rat liver was analyzed by Northern blot. RNAs were separated on a 0.8% agarose gel containing ethidium bromide in MOPS buffer. Running buffer and gel contained 0.2 M formaldehyde. The RNAs were transferred onto a positively charged nylon membrane (Amersham, Orsay, France) by downward capillary transfer in running buffer. Examination of the stained membrane under UV light was used to confirm the quality of loading and transfer. A rat TIMP-1 cDNA probe was labeled with [α^32P]dCTP by random priming using the Ready-to-go kit from Roche (Meylan, France). Hybridization was performed using the Ultrahyb solution (Ambion, Austin, Tex.). The blots were washed in stringent conditions (0.1×SSC, 0.1% SDS at 65° C.). To further confirm the loading and transfer accuracy, blots were rehybridized with a rat GAPDH cDNA probe (Fort et al., 1985). The signals were quantified with the Kodak 1 D Image Analysis Software (Eastman Kodak Company, Rochester, N.Y.). Results are presented as TIMP-1/GAPDH ratios.

type I collagen mRNA = assay: Liver type I collagen transcripts (quantitative RT-PCR, in situ hybridization); format: in vivo, rat
Method: In situ hybridization was performed on frozen sections according to a protocol described earlier, using [α^33P]UTP labeled riboprobes (Faouzi et al., 1999). The probe used was a 900 bp fragment of the rat α2(I) collagen cDNA, (Genovese et aL, 1984). The cDNA was subcloned into the pGEM5Z f(+) vector. Antisense and sense probes were generated by in vitro transcription. Their size was reduced to ˜250 nt by alkaline hydrolysis.
Total RNA was prepared from liver samples by the method of Chomczynski and Sacchi (1987), modified as described by Puissant and Houdebine (1990).
Type I collagen specific transcripts were quantified by a technique of quantitative RT-PCR, that has previously been described in detail (Bieche et al., 2000). Each sample was normalized on the basis of its expression of the RPLPO gene (also known as 36B4, encoding human acidic ribosomal phosphoprotein P0).

[4] = test system: liver norepinephrin stores; assay: Liver catecholamine (norepinephrin) content by HPLC with electrochemical detection; format: in vivo, rat; conditions: for Norepinephrin content in liver: 2 weeks, mean ± 1 SD; for decrease in the liver norepinephrin content: OHDA 2 weeks
Method: as §2, §3
Extraction was performed on liver homogenates (10% w/v, in 0.05 M ice-cold Tris-HCl buffer at pH 7.4) according to the method of Smedes et al. using […] as internal standard (Smedes et al., 1982). Extracts were analyzed by HPLC with electrochemical detection.

HSC-T6 = assay: Hepatic stellate cell proliferation assay (tetrazolium dye reduction); format: cell-based, rat
Method: FIG. 3: Effect of norepinephrin on hepatic stellate cell (HSC) proliferation. Cells were exposed to increasing concentrations of norepinephrin for 2 days. Cell number was evaluated through the measurement of the reduction of the dye 3-(4,5-dimethylthiazol-2yl)-2,5 diphenyltetrazolium.
FIG. 4: Effect of prazosin on hepatic stellate cell proliferation induced by norepinephrin Cells were exposed to increasing concentrations of prazosin, either alone (open symbols), or in the presence of 100 nM norepinephrin (closed symbols). Cell number was evaluated through the measurement of the reduction of the dye 3-(4,5-dimethylthiazol-2yl)-2,5 diphenyltetrazolium. The marginal proliferation index was calculated as: (ODexperimental sample—ODday 0)/(ODcontrol—ODday 0), where OD is the optical density measured at the end of the experiment.
The inventors used an established rat HSC cell line, named HSC-T6.
Cells were exposed to increasing concentrations of norepinephrin for 2 days. In some experiments, cells were also exposed to increasing concentrations of prazosin. Cell number was evaluated through the measurement of the reduction of the dye 3-(4,5-dimethylthiazol-2yl)-2,5 diphenyltetrazolium.

NCCc1cc(O)c(O)cc1O [OHDA, 6-hydroxydopamine]
Necrosis area ([1]; CCl4 + OHDA, 96 hs, hematoxylin and eosin sections, CCl4 alone 4.6 ± 2.3): 3.3 ± 1.0% | ALAT ([1]; CCl4 + OHDA, 96 hs, CCl4 alone 269 ± 117): 221 ± 71 IU.I^−1 | Alkaline phosphatase ([1]; CCl4 + OHDA, 96 hs, CCl4 alone 314 ± 111): 240 ± 117 IU.I^−1 | ASAT ([1]; CCl4 + OHDA, 96 hs, CCl4 alone 452 ± 152): 342 ± 62 IU.I^−1 | effect on the acute toxicity of CCl4 (biological tests and necrosis area) [1]: no statistically significant difference | Bilirubin ([2]; CCl4 with OHDA (group IV), CCl4 alone 3.2 ± 0.7): 5.0 ± 1.4 μM.I^−1 | ALAT ([2]; CCl4 with OHDA (group IV), CCl4 alone 130 ± 98): 97 ± 37 IU.I^−1 | ASAT ([2]; CCl4 with OHDA (group IV), CCl4 alone 173 ± 82): 137 ± 29 IU.I^−1 | Alkaline phosphatase ([2]; CCl4 with OHDA (group IV), CCl4 alone 276 ± 53): 225 ± 58 IU.I^−1 | LW/BW ratio (X100) ([2]; CCl4 with OHDA (group IV), CCl4 alone 4.6 ± 0.7): 4.1 ± 0.6 | Liver weight ([2]; CCl4 with OHDA (group IV), CCl4 alone 13.7 ± 1.7): 12.5 ± 1.0 g | Body weight ([2]; CCl4 with OHDA (group IV), CCl4 alone 298 ± 12): 293 ± 6 g | gross toxic effects of prolonged treatment ([2]; OHDA alone (group II)): No gross toxic effects | histologic aspect of the livers ([2]; OHDA alone (group II)): strictly normal | Bilirubin ([2]; OHDA alone (group II), saline 4.5 ± 1.4): 2.3 ± 0.5 μM.I^−1 | ALAT ([2]; OHDA alone (group II), saline 43 ± 4): 50 ± 6 IU.I^−1 | ASAT ([2]; OHDA alone (group II), saline 120 ± 9): 94 ± 18 IU.I^−1 | Alkaline phosphatase ([2]; OHDA alone (group II), saline 178 ± 48): 274 ± 46 IU.I^−1 | LW/BW ratio (X100) ([2]; OHDA alone (group II), saline 3.7 ± 0.2): 4.4 ± 0.2 | Liver weight ([2]; OHDA alone (group II), saline 12.9 ± 1.0): 16.0 ± 1.1 g | Body weight ([2]; OHDA alone (group II), saline 344 ± 17): 365 ± 14 g | area of fibrosis (% of field area) ([3]; CCl4 with OHDA (group IV), 2 weeks, CCl4 alone 2.86±0.78%): 1.54±0.29% | area of fibrosis ([3]; CCl4 with OHDA, 6 weeks, CCl4 alone 18.82±1.79%): 12.38±1.89% | area of fibrosis (% of field area) ([3]; OHDA alone (group II), 2 weeks): 0.61±0.08% | area of fibrosis ([3]; OHDA alone, 6 weeks): 0.47±0.03% | reduction in the area of fibrosis ([3]; OHDA with CCl4 vs CCl4 alone, 2 weeks, control values subtracted): 60% and 60.2% | decrease of fibrosis area ([3]; OHDA with CCl4 vs CCl4 alone, 6 weeks): 36% | effect on CCl4-induced increase of liver TIMP-1 mRNA (TIMP-1/GAPDH ratio) (TIMP-1 mRNA; CCl4 with OHDA (group IV), 2 weeks): abrogated; also recorded: normalization of the TIMP-1/GAPDH ratio back to control values | effect on CCl4-induced increase of liver TIMP-1 mRNA (TIMP-1 mRNA; CCl4 with OHDA, 6 weeks): greatly reduced | reduction in the TIMP-1/GAPDH ratio (TIMP-1 mRNA; CCl4 with OHDA, 6 weeks, all animals, not statistically significant): 45% | reduction in the TIMP-1/GAPDH ratio (TIMP-1 mRNA; CCl4 with OHDA, 6 weeks, one animal with very high value removed, p=0.05): 57% | type I collagen mRNA level (quantitative RT-PCR) (type I collagen mRNA; CCl4 together with OHDA, 6 weeks, CCl4 alone 477.2±91.0, control 16.0±5.9): 364.5±68.7 arbitrary units | decrease in type I collagen mRNA level (type I collagen mRNA; CCl4 with OHDA vs CCl4 only, 6 weeks): 24% | Norepinephrin content in liver ([4]; CCl4 + OHDA (group IV), CCl4 alone group III 29.1 ± 10.6): 3.6 ± 1.5 ng/g of wet liver tissue | decrease in the liver norepinephrin content ([4]; CCl4-treated animals): 87.6% | Norepinephrin content in liver ([4]; OHDA alone (group II), 25 mg/kg i.p. twice a week, saline group I 47.6 ± 9.9): 6.0 ± 3.2 ng/g of wet liver tissue | decrease in the liver norepinephrin content ([4]; non CCl4-treated animals): 87.4%

COc1cc2nc(N3CCN(C(=O)c4ccco4)CC3)nc(N)c2cc1OC [prazosin, 1-(4-amino-6,7-dimethoxy-2-quinazolinyl)-4-(2-furanylcarbonyl) piperazine]
effect on the acute toxicity of CCl4 (biological tests and necrosis area) [1]: did not decrease | fibrosis area (histomorphometry) ([3]; CCl4 with prazosin 50 mg/l in drinking water (group VI), 2 weeks, CCl4 alone 2.35±0.41%): 0.89±0.21% | decrease in fibrosis area ([3]; prazosin with CCl4 vs CCl4 alone, 2 weeks): 83% | type I collagen transcripts by in situ hybridization (type I collagen mRNA; CCl4 with prazosin, 2 weeks): large decrease in transcripts | effect on mitogenic effect of norepinephrin on HSC-T6 (HSC-T6; in the presence of 100 nM norepinephrin, 3 independent experiments in quadruplicate): abolished | effect on HSC-T6 proliferation alone (HSC-T6; without norepinephrin): no effect
